From ChEMBL document CHEMBL5465560, “Selectivity Literature for EUbOPEN Chemogenomic Library” (2024)

Tests used:
[1] = molecular target: T1, Serine/threonine-protein kinase D2 (Homo sapiens) (UniProt Q9BZL6); test: Selectivity interaction (KinomeScan (DiscoverX)) EUB0000695a PRKD2; conditions: at 100 nM
T1 sequence (whole entry): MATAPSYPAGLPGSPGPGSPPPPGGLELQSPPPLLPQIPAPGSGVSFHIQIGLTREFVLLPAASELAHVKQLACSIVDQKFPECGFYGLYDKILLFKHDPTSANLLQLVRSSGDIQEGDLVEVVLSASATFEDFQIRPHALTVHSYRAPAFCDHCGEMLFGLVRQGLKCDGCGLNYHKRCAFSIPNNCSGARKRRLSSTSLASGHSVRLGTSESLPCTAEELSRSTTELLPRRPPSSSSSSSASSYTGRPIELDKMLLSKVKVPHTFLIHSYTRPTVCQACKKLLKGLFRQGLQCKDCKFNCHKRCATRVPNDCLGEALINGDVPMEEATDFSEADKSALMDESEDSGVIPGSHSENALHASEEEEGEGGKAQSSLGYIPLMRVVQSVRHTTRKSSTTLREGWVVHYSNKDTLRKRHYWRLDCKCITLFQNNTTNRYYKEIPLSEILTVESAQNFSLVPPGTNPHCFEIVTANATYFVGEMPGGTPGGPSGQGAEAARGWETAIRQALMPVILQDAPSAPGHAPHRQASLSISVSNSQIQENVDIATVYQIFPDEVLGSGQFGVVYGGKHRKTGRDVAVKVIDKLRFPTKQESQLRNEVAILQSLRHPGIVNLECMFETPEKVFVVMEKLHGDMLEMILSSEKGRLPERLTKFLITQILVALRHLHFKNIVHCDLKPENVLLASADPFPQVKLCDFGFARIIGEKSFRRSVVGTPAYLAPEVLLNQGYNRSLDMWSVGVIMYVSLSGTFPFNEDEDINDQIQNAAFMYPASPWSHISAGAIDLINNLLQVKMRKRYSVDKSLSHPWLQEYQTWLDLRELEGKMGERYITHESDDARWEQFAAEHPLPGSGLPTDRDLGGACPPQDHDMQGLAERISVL

[2] = molecular target: T2, Serine/threonine-protein kinase Nek2 (Homo sapiens) (UniProt P51955); test: Selectivity interaction (Kinase screening (Nanosyn)) EUB0000604a NEK2
T2 sequence (whole entry): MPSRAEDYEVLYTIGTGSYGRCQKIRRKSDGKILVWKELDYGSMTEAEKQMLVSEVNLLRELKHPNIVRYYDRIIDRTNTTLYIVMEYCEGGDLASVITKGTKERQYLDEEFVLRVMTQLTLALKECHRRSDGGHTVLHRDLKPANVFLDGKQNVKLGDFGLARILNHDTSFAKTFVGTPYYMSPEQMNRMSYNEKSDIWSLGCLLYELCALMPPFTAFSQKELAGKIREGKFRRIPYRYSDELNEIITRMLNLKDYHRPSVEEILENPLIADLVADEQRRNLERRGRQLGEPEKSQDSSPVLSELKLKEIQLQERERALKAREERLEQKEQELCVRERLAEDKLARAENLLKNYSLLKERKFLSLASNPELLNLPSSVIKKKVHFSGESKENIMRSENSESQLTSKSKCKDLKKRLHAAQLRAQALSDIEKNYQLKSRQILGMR

[3] = molecular target: Cyclin-dependent kinase 18 (Homo sapiens) (UniProt Q07002); conditions: at 10 µM
Chain of Cyclin-dependent kinase 18 (Homo sapiens) (Q07002 whole entry): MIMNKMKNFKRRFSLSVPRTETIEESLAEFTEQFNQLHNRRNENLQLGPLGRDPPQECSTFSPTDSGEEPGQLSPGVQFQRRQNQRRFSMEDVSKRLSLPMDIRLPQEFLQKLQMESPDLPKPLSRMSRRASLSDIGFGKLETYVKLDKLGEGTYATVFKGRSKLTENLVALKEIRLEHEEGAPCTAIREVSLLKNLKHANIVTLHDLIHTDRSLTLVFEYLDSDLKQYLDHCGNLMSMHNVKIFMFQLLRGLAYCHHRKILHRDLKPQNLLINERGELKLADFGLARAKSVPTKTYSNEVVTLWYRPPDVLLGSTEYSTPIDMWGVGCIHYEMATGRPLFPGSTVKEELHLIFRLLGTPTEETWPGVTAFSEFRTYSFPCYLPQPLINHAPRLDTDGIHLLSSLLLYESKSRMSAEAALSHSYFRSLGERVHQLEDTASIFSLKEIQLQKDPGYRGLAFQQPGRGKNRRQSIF

[4] = molecular target: Maternal embryonic leucine zipper kinase (Homo sapiens) (UniProt Q14680); test: Selectivity interaction (KinomeScan (DiscoverX)) EUB0000092b MELK; conditions: at 10 µM
Chain of Maternal embryonic leucine zipper kinase (Homo sapiens) (Q14680 whole entry, looked up): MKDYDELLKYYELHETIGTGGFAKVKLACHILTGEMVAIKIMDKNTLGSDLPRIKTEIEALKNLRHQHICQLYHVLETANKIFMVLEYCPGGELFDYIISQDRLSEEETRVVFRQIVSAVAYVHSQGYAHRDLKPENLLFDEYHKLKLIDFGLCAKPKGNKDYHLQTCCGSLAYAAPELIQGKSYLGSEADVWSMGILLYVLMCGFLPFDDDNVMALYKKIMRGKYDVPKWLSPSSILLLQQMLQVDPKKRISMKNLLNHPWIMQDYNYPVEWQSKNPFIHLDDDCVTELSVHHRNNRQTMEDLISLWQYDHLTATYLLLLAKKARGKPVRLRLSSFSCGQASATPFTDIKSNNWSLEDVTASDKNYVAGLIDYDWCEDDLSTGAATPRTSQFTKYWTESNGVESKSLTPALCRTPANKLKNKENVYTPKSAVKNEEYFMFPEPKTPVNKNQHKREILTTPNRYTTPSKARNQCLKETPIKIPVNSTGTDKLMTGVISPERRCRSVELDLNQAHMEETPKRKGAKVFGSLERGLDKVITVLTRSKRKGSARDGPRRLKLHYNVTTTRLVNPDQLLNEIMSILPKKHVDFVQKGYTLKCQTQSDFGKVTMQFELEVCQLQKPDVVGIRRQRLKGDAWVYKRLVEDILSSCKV

[5] = molecular target: T3, NUAK family SNF1-like kinase 2 (Homo sapiens) (UniProt Q9H093); test: Selectivity interaction (KinomeScan (DiscoverX)) EUB0000092b NUAK2; conditions: at 10 µM
T3 sequence (whole entry): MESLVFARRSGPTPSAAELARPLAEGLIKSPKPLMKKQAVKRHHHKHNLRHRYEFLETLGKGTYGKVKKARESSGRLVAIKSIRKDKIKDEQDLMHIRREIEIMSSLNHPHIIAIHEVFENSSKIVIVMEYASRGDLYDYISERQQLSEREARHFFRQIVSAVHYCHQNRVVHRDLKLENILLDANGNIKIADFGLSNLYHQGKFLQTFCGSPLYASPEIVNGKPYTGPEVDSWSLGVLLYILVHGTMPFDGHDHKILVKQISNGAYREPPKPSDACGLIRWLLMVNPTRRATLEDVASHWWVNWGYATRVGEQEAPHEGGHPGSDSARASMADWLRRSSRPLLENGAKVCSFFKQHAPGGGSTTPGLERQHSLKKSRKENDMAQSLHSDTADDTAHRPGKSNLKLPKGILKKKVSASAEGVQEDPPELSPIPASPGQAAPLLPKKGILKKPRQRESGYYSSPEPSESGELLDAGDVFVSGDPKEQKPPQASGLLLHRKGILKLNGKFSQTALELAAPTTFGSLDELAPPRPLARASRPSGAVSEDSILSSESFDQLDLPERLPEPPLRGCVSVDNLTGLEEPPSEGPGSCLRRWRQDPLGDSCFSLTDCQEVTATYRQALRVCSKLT

`Cc1cc(F)c(C(=O)Nc2cccc(-c3nncn3C(C)C)n2)cc1-n1cnc(C2CC2)c1` was tested, and the % of control [1] was 58%.
In the case of `Cc1cnc(Nc2ccc(F)cc2Cl)nc1-c1c[nH]c(C(=O)N[C@H](CO)c2cccc(Cl)c2)c1`, the % of inhibition [2] is reported as 3%.
In the case of `CCN(CC)CCCCNc1ncc2cc(-c3cc(OC)cc(OC)c3)c(NC(=O)NC(C)(C)C)nc2n1`, the % of control [3] is reported as 100%.
`CCC(=O)N1CCN(c2ccc(-n3c(=O)ccc4cnc5ccc(-c6cnc7ccccc7c6)cc5c43)cc2C(F)(F)F)CC1` showed a % of control [4] of 50% and a % of control [5] of 100%.
